Results: ChEMBL document CHEMBL3885881, “DrugMatrix”

Species on record: Rattus norvegicus
Test: DrugMatrix - Regimen: Daily Repeat
Type: toxicity, organism-based, Sprague-Dawley
Parameters: regimen Daily Repeat, gender Male, age 6-8 weeks
Conditions: in vivo, po, route oral GAVAGE, vehicle .5 % CMC; for ABSOLUTE EOSINOPHIL / ABSOLUTE LYMPHOCYTE / ABSOLUTE MONOCYTE / ABSOLUTE SEGMENTED NEUTROPHIL / BASOPHIL / EOSINOPHIL / ERYTHROCYTE COUNT / HEMATOCRIT / HEMOGLOBIN / LEUKOCYTE COUNT / LYMPHOCYTE / MEAN CORPUSCULAR HEMOGLOBIN CONCENTRATION / MEAN CORPUSCULAR VOLUME / MONOCYTE / NEUTROPHIL / NUCLEATED RED BLOOD CELLS / PLATELET COUNT / ABSOLUTE BASOPHIL: tissue Blood; for ALANINE AMINOTRANSFERASE / ALBUMIN / ALKALINE PHOSPHATASE / BLOOD UREA NITROGEN / CARBON DIOXIDE / CHLORIDE / CHOLESTEROL / CREATINE PHOSPHOKINASE / CREATININE / GLUCOSE / LACTATE DEHYDROGENASE / LIPASE / PHOSPHORUS / POTASSIUM / SODIUM / TOTAL BILIRUBIN / TOTAL PROTEIN: tissue Plasma
[1] = 60 mg/kg, 120 h, dose level High, time 5 day
[2] = […], 72 h, dose 1.5 mg/Kg, dose level Low, time 3 day
[3] = […], 120 h, dose 1.5 mg/Kg, dose level Low, time 5 day

For `CO[C@H]1C[C@@H]2CC[C@@H](C)[C@@](O)(O2)C(=O)C(=O)N2CCCC[C@H]2C(=O)O[C@H]([C@H](C)C[C@@H]2CC[C@@H](O)[C@H](OC)C2)CC(=O)[C@H](C)/C=C(\C)[C@@H](O)[C@@H](OC)C(=O)[C@H](C)C[C@H](C)/C=C/C=C/C=C/1C` [SIROLIMUS], the “ABSOLUTE EOSINOPHIL” value [1] was 0 CELLS/uL, the “ABSOLUTE LYMPHOCYTE” value [1] was 6680.33 CELLS/uL and the “ABSOLUTE MONOCYTE” value [1] was 49.67 CELLS/uL. The “ABSOLUTE SEGMENTED NEUTROPHIL” value [1] was 670 CELLS/uL, the BASOPHIL [1] was 0% and the EOSINOPHIL [1] was 0%. The “ERYTHROCYTE COUNT” value [1] was 6.63 x10E6/uL, the HEMATOCRIT [1] was 40% and the HEMOGLOBIN [1] was 15.77 G/DL. The “LEUKOCYTE COUNT” value [1] was 7.4 x10E3/uL, the LYMPHOCYTE [1] was 90.33% and the “MEAN CORPUSCULAR HEMOGLOBIN CONCENTRATION” value [1] was 39.4 G/DL. The “MEAN CORPUSCULAR VOLUME” value [1] was 60.43 fL, the MONOCYTE [1] was 0.67% and the NEUTROPHIL [1] was 9%. The “NUCLEATED RED BLOOD CELLS” value [1] was 0 /100WBC, the “PLATELET COUNT” value [1] was 709.33 x10E3/uL and the “ALANINE AMINOTRANSFERASE” value [1] was 49.33 u/L. For the same compound, the ALBUMIN [1] was 4.2 G/DL, the “ALKALINE PHOSPHATASE” value [1] was 311.67 u/L and the “BLOOD UREA NITROGEN” value [1] was 20.67 mg/dL. The “CARBON DIOXIDE” value [1] was 28.33 mmol/L, the CHLORIDE [1] was 99.67 MEQ/L and the CHOLESTEROL [1] was 81.67 mg/dL. For the same compound, the “CREATINE PHOSPHOKINASE” value [1] was 479 u/L, the CREATININE [1] was 0.24 mg/dL and the GLUCOSE [1] was 202.33 mg/dL. For the same compound, the “LACTATE DEHYDROGENASE” value [1] was 231.33 u/L, the LIPASE [1] was 9.67 u/L and the PHOSPHORUS [1] was 10.43 mg/dL. For the same compound, the POTASSIUM [1] was 4.97 MEQ/L, the SODIUM [1] was 145.27 MEQ/L and the “TOTAL BILIRUBIN” value [1] was 0.2 mg/dL. For the same compound, the “TOTAL PROTEIN” value [1] was 6.23 G/DL, the “ABSOLUTE BASOPHIL” value [2] was 0 CELLS/uL and the “ABSOLUTE EOSINOPHIL” value [2] was 267 CELLS/uL. The “ABSOLUTE LYMPHOCYTE” value [2] was 13791 CELLS/uL, the “ABSOLUTE MONOCYTE” value [2] was 267 CELLS/uL and the “ABSOLUTE SEGMENTED NEUTROPHIL” value [2] was 1575 CELLS/uL. For the same compound, the BASOPHIL [2] was 0%, the EOSINOPHIL [2] was 1.67% and the “ERYTHROCYTE COUNT” value [2] was 5.63 x10E6/uL. For the same compound, the HEMATOCRIT [2] was 36.33%, the HEMOGLOBIN [2] was 13.8 G/DL and the “LEUKOCYTE COUNT” value [2] was 15.9 x10E3/uL. The LYMPHOCYTE [2] was 87%, the “MEAN CORPUSCULAR HEMOGLOBIN CONCENTRATION” value [2] was 38 G/DL and the “MEAN CORPUSCULAR VOLUME” value [2] was 64.5 fL. For the same compound, the MONOCYTE [2] was 1.67%, the NEUTROPHIL [2] was 9.67% and the “NUCLEATED RED BLOOD CELLS” value [2] was 0 /100WBC. For the same compound, the “PLATELET COUNT” value [2] was 1156 x10E3/uL, the “ALANINE AMINOTRANSFERASE” value [2] was 52.33 u/L and the ALBUMIN [2] was 4.23 G/DL. The “ALKALINE PHOSPHATASE” value [2] was 361.33 u/L, the “BLOOD UREA NITROGEN” value [2] was 17.33 mg/dL and the “CARBON DIOXIDE” value [2] was 27.33 mmol/L. For the same compound, the CHLORIDE [2] was 99 MEQ/L, the CHOLESTEROL [2] was 79.33 mg/dL and the “CREATINE PHOSPHOKINASE” value [2] was 205.33 u/L. For the same compound, the CREATININE [2] was 0.21 mg/dL, the GLUCOSE [2] was 162 mg/dL and the “LACTATE DEHYDROGENASE” value [2] was 201.67 u/L. The LIPASE [2] was 10 u/L, the PHOSPHORUS [2] was 12.33 mg/dL and the POTASSIUM [2] was 6.49 MEQ/L. The SODIUM [2] was 144 MEQ/L, the “TOTAL BILIRUBIN” value [2] was 0.2 mg/dL and the “TOTAL PROTEIN” value [2] was 6 G/DL. The “ABSOLUTE BASOPHIL” value [3] was 0 CELLS/uL, the “ABSOLUTE EOSINOPHIL” value [3] was 0 CELLS/uL and the “ABSOLUTE LYMPHOCYTE” value [3] was 12718.33 CELLS/uL. The “ABSOLUTE MONOCYTE” value [3] was 96 CELLS/uL, the “ABSOLUTE SEGMENTED NEUTROPHIL” value [3] was 1619 CELLS/uL and the BASOPHIL [3] was 0%. For the same compound, the EOSINOPHIL [3] was 0%, the “ERYTHROCYTE COUNT” value [3] was 5.45 x10E6/uL and the HEMATOCRIT [3] was 33.87%. The HEMOGLOBIN [3] was 13.8 G/DL, the “LEUKOCYTE COUNT” value [3] was 14.43 x10E3/uL and the LYMPHOCYTE [3] was 87.67%. The “MEAN CORPUSCULAR HEMOGLOBIN CONCENTRATION” value [3] was 40.77 G/DL, the “MEAN CORPUSCULAR VOLUME” value [3] was 62.2 fL and the MONOCYTE [3] was 0.67%. For the same compound, the NEUTROPHIL [3] was 11.67%, the “NUCLEATED RED BLOOD CELLS” value [3] was 0 /100WBC and the “PLATELET COUNT” value [3] was 1286.33 x10E3/uL. For the same compound, the “ALANINE AMINOTRANSFERASE” value [3] was 92.33 u/L, the ALBUMIN [3] was 3.8 G/DL and the “ALKALINE PHOSPHATASE” value [3] was 328.67 u/L. The “BLOOD UREA NITROGEN” value [3] was 17.33 mg/dL, the “CARBON DIOXIDE” value [3] was 20.33 mmol/L and the CHLORIDE [3] was 99 MEQ/L. For the same compound, the CHOLESTEROL [3] was 66.67 mg/dL, the “CREATINE PHOSPHOKINASE” value [3] was 1089 u/L and the CREATININE [3] was 0.25 mg/dL. For the same compound, the GLUCOSE [3] was 251.33 mg/dL, the “LACTATE DEHYDROGENASE” value [3] was 725.33 u/L and the LIPASE [3] was 11 u/L. It also gave a PHOSPHORUS [3] of 14.07 mg/dL, a POTASSIUM [3] of 6.17 MEQ/L and an SODIUM [3] of 142.93 MEQ/L. The “TOTAL BILIRUBIN” value [3] was 0.2 mg/dL and the “TOTAL PROTEIN” value [3] was 5.43 G/DL.
